Reference: PMC6152655, “Determination and Pharmacokinetic Study of Three Diterpenes in Rat Plasma by UHPLC-ESI-MS/MS after Oral Administration of Rosmarinus officinalis L. Extract” (Molecules : A Journal of Synthetic Chemistry and Natural …, 2017)
Where two headings read alike, the source gives them in different places.

Tests used:
[1] = Pharmacokinetic study in rats after oral administration of R. officinalis extract (UHPLC-ESI-MS/MS of plasma); assay type: in vivo, Sprague-Dawley (SD) rats; design: Cmax: unit: ng/mL; settings: for Cmax / AUC(0-inf) / AUC(0-t) / Tmax / half-life: rat plasma, n = 6; for concentration at 0.5 h: plasma sample obtained at 0.5 h from a rat after oral administration of rosemary extract (Figure 2C)
Experimental: The validated method was successfully applied to pharmacokinetic studies of three diterpenes components after oral administration of rosemary at three different doses (0.25, 0.82, 2.45 g/kg). […] Therefore, we set low, medium and high doses in this study.
The main pharmacokinetic parameters of the analytes were calculated with DAS 2.0 (Shanghai, China) by non-compartmental analysis.
For the preparation of the extract, 100 g of dried leaves of R. officinalis were extracted under reflux with 1 L ethanol-water (80:20, v/v) for three times, 1 h for each time, and then filtrated. The combined filtrate was evaporated to dryness, and the residue was dissolved in water to get a concentration equivalent to 0.1 g/mL of the R. officinalis extract.
Male Sprague-Dawley (SD) rats (body weight 220 ± 50 g) were purchased and adapted under 65% RH, 23–27°C. […] Eighteen rats were randomly divided into low (0.24 g/kg), medium (0.82 g/kg), high (2.45 g/kg) dose groups. The SD rats were fasted for 12 h before experiment, had free access to water even during the experiment. The blood (0.25 mL) was collected from the orbital venous plexus at 0.08, 0.25, 0.50, 1, 1.5, 2, 3, 4, 6, 8, 12 and 24 h after oral administration of R. officinalis extract. The plasma was immediately acquired by centrifugation at 4 °C and stored frozen at −20 °C until analysis.
Before the experiment, the plasma samples stored in −20 °C were thawed naturally at room temperature. Using the optimized method, 50 μL of I.S. (2120 ng/mL), 100 μL of methanol and 100 μL of 1 mol/L HCl were added to 100 μL of plasma sample followed with vortex-mixed for 30 s. The mixed sample was extracted with 3 mL of ethyl acetate by being vortex-mixed for 1 min. The upper organic layer was removed and evaporated to dryness under a stream of nitrogen at 40 °C after centrifuging at 3800 rpm for 5 min. The residue was reconstituted with 100 μL of acetonitrile-water (40:60, v/v), and then vortex-mixed for 2 min and filtered by a 0.22 μm membrane. 10 μL of the subsequent filtrate were injected into the UHPLC-ESI-MS/MS system [20].
The maximum plasma concentration (Cmax) and the time of maximum plasma concentration (tmax) were observed directly from the measured data. The elimination rate constant (Ke) was calculated by linear regression of the terminal points in a semi-log plot of the plasma concentration against time. The elimination half-life (t1/2) was calculated using the formula t1/2 = 0.693/Ke. The area under plasma concentration-time curve (AUC0→t) to the last measurable plasma concentration (Ct) was estimated by using the linear trapezoidal rule. The area under the plasma concentration-time curve to time infinity (AUC0→∞) was calculated as AUC0→∞ = AUC0→t + Ct/Ke. Pharmacokinetic parameters of the analytes were calculated with DAS 2.0 (Shanghai, China) by non-compartmental analysis.

[2] = Stability of the three diterpenes in rat plasma under different storage conditions; assay type: in vitro ADME; settings: n = 6; for Stability (% RE) Post-Preparative: extracted samples, 12 h at 4 °C; for Stability (% RE) Long-Term / Stability (% RE) Short-Term / Stability (% RE) Freeze-Thaw: rat plasma; for Stability (% RE) Long-Term: 2 weeks at −20 °C; for Stability (% RE) Short-Term: room temperature 4 h; for Stability (% RE) Freeze-Thaw: three freeze (−20 °C)-thaw cycles
Experimental: The stability of the three diterpenes was assessed under various conditions (Table 4). […] Moreover, all the investigated compounds were stable for 2 weeks when kept frozen at −20 °C. The stability including cycles of freeze-thaw stability (three freeze at −20 °C and thaw cycles), room temperature stability (storage for 4 h at ambient temperature), long-term stability (storage for 2 weeks at −20 °C), post-preparation stability (storage for 12 h after sample preparation at 4 °C) were tested at LQC, MQC, HQC levels with six replicates at each level. The results were compared with those for freshly prepared QC samples and the percentage concentration deviation was calculated. The accuracy should be within ± 15% in freshly prepared samples. All the testing QC samples of stability were determined by using the calibration curve of freshly prepared standard samples.

[3] = design: method as in PMID 19309757; settings: rat, monomeric compound (purity ≥ 98%) instead of extract; cited from earlier work
[4] = male, Sprague-Dawley, rat, plasma, po, 0.24 g/kg, oral R. officinalis extract 0.24 g/kg (low dose), read-out: Cmax
[5] = male, Sprague-Dawley, rat, plasma, po, 0.82 g/kg, oral R. officinalis extract 0.82 g/kg (medium dose), read-out: Cmax
[6] = male, Sprague-Dawley, rat, plasma, po, 2.45 g/kg, oral R. officinalis extract 2.45 g/kg (high dose), read-out: Cmax
[7] = male, Sprague-Dawley, oral R. officinalis extract 0.24 g/kg (low dose)
[8] = male, Sprague-Dawley, oral R. officinalis extract 0.82 g/kg (medium dose)
[9] = male, Sprague-Dawley, oral R. officinalis extract 2.45 g/kg (high dose)
[10] = high QC (25,800/3488/4080 ng/mL)
[11] = low QC (21.50/2.910/3.400 ng/mL)
[12] = medium QC (1075/145.3/170.0 ng/mL)
[13] = low QC (21.50/2.910/3.400 ng/mL carnosic acid/carnosol/rosmanol)

Cmax [1, 4]	Cmax [1, 5]	Cmax [1, 6]	concentration at 0.5 h ([1]; male, Sprague-Dawley)	AUC(0-inf) [1, 7]	AUC(0-t) [1, 7]	Tmax [1, 7]	half-life [1, 7]	AUC(0-inf) [1, 8]	AUC(0-t) [1, 8]	Tmax [1, 8]	half-life [1, 8]	AUC(0-inf) [1, 9]	AUC(0-t) [1, 9]	Tmax [1, 9]	half-life [1, 9]	Stability (% RE) Post-Preparative [2, 10]	Stability (% RE) Post-Preparative [2, 11]	Stability (% RE) Post-Preparative [2, 12]	Stability (% RE) Long-Term [2, 10]	Structure (SMILES)	other results
77.2 ± 10.5 ng/mL	188 ± 75.9 ng/mL	633 ± 118 ng/mL	568 ng/mL	552 ± 130 ng·h/mL	460 ± 54.9 ng·h/mL	0.25 h	8.88 ± 3.52 h	826 ± 138 ng·h/mL	678 ± 56.9 ng·h/mL	0.2 ± 0.18 h	9.75 ± 2.44 h	7980 ± 1650 ng·h/mL	5370 ± 927 ng·h/mL	0.55 ± 0.27 h	15.4 ± 3.54 h	4.60 % RE	−0.30 % RE	−7.65 % RE	9.17 % RE	CC(C)c1cc2c(c(O)c1O)[C@@]13CCCC(C)(C)[C@@H]1[C@H](OC3=O)[C@H]2O [Rosmanol]	Cmax ([1]; oral R. officinalis extract 2.45 g/kg (high dose)): 633.41 ± 118.52 ng/mL; Stability (% RE) Long-Term [2, 11]: 7.17 % RE; Stability (% RE) Long-Term [2, 12]: −8.56 % RE; Stability (% RE) Short-Term [2, 10]: 0.65 % RE; Stability (% RE) Short-Term [2, 11]: 5.01 % RE; Stability (% RE) Short-Term [2, 12]: −8.16 % RE; Stability (% RE) Freeze-Thaw [2, 10]: −0.07 % RE; Stability (% RE) Freeze-Thaw [2, 13]: 4.65 % RE; Stability (% RE) Freeze-Thaw [2, 12]: −7.12 % RE
217 ± 53.1 ng/mL	413 ± 42.6 ng/mL	1480 ± 266 ng/mL	1830 ng/mL	1820 ± 327 ng·h/mL	1470 ± 190 ng·h/mL	0.4 ± 0.13 h	12.3 ± 2.36 h	7360 ± 2740 ng·h/mL	3190 ± 316 ng·h/mL	0.27 ± 0.15 h	13.9 ± 6.95 h	17400 ng·h/mL	14000 ng·h/mL	0.7 ± 0.45 h	12.8 ± 3.15 h	2.09 % RE	2.32 % RE	0.66 % RE	−0.48 % RE	CC(C)c1cc2c(c(O)c1O)[C@@]13CCCC(C)(C)[C@@H]1C[C@@H]2OC3=O [Carnosol]	Cmax ([1]; oral R. officinalis extract 0.24 g/kg (low dose)): 216.56 ± 53.09 ng/mL; Cmax ([1]; oral R. officinalis extract 0.82 g/kg (medium dose)): 413.34 ± 42.59 ng/mL; Stability (% RE) Long-Term [2, 11]: 3.10 % RE; Stability (% RE) Long-Term [2, 12]: 14.49 % RE; Stability (% RE) Short-Term [2, 10]: −0.79 % RE; Stability (% RE) Short-Term [2, 11]: 8.07 % RE; Stability (% RE) Short-Term [2, 12]: −8.67 % RE; Stability (% RE) Freeze-Thaw [2, 10]: 0.30 % RE; Stability (% RE) Freeze-Thaw [2, 13]: 5.39 % RE; Stability (% RE) Freeze-Thaw [2, 12]: 8.40 % RE
1210 ± 344 ng/mL	3960 ± 516 ng/mL	27500 ng/mL	27900 ng/mL	14900 ng·h/mL	9140 ± 1500 ng·h/mL	0.3 ± 0.11 h	8.02 ± 2.08 h	40000 ng·h/mL	28500 ng·h/mL	0.3 ± 0.11 h	12.8 ± 5.14 h	181000 ng·h/mL	146000 ng·h/mL	0.5 ± 0.31 h	12.8 ± 1.23 h	14.83 % RE	13.89 % RE	14.10 % RE	14.84 % RE	CC(C)c1cc2c(c(O)c1O)[C@@]1(C(=O)O)CCCC(C)(C)[C@@H]1CC2 [Carnosic acid]	Stability (% RE) Long-Term [2, 11]: 13.78 % RE; Stability (% RE) Long-Term [2, 12]: 14.30 % RE; Stability (% RE) Short-Term [2, 10]: 14.84 % RE; Stability (% RE) Short-Term [2, 11]: 10.21 % RE; Stability (% RE) Short-Term [2, 12]: 14.80 % RE; Stability (% RE) Freeze-Thaw [2, 10]: 14.40 % RE; Stability (% RE) Freeze-Thaw [2, 13]: 14.04 % RE; Stability (% RE) Freeze-Thaw [2, 12]: 14.82 % RE; Tmax [3]: 2.17 h
